# Measurements published in patent US20240060131A1, “METHOD FOR IDENTIFYING AND/OR REGULATING SENESCENCE” (INSTITUTE OF ZOOLOGY, CHINESE ACADEMY OF SCIENCES, priority 2020, published 2024).
# Columns and labels:
# old mice [1] = test: Long-term intraperitoneal injection of Ratelgravir to old mice; format: in vivo, mouse; details: 16 weeks
# Experimental: Ratelgravir was dissolved at 50 mg/ml in 30% PEG300+2% Tween80+2% DMSO, and intraperitoneally injected to mice at 18 months old, […] each time, twice a week (n=23). The weight, hollow back, hair, skin, cataract and activity score of mice were measured 8 weeks and 16 weeks after first injection, grip strength was measured and a survival curve was plotted.
# (§1) Grip strength of the limbs was measured by Grip strength meter (Panlab Grip Strength Meter, LE902) in accordance with the manufacturer's instructions. In brief, mice were put on the top of grip strength meter and pulled along the grid at a constant rate, until mice loosened its grip. The peak tension in each of the 10 repeats was recorded, and the mean value was calculated as grip strength for each mouse.
# The retrovirus integrase inhibitor Ratelgravir was dissolved in 30% PEG300+2% Tween80+2% DMSO at a concentration of 50 mg/ml, mice at 18 months old was injected intraperitoneally, […], 200 μl/injection, twice a week (as shown by FIG. 34A).
# WS hMPC = test: Ki67 and SA-β-gal staining of WS hMPC treated with retrovirus inhibitors; format: cell-based, human; details: WS hMPCs, 10 μM lamivudine (3TC), abacavir (0.2 μM), Raltegravir, vs DMSO solvent control
# Experimental: Cells seeded on coverslip (Thermo Fisher Scientific) were washed by PBS, fixed in 4% paraformaldehyde (PFA), permeabilized in 0.4% Triton X-100, blocked by 10% donkey serum. The coverslip was incubated with primary antibody at 4° C. in blocking buffer, then incubated with secondary antibody at room temperature for 1 h. Nucleus was labelled by Hoechst 33342 (Invitrogen).
# For treatment by endogenous viral reverse transcriptase inhibitor and integrase inhibitor, hMPCs were treated by […] abacavir, lamivudine (3TC) and Raltegravir, respectively, medium was replaced every 3 days, followed by new treatment. After treatment of two cell passages, cells were used for Ki67 immunofluorescence, SA-β-gal staining and RNA/DNA extraction.
# Cells were fixed by a buffer containing 2% (w/v) formaldehyde and 0.2% (w/v) glutaraldehyde for 5 min, and treated by staining buffer containing 1 mg/mL X-gal at 37° C. overnight.
# 10 μM lamivudine (3TC), abacavir (0.2 μM) and Raltegravir were added to WS hMPC, respectively, incubated at 37° C., and fresh medium containing each drug was replaced every two days, solvents dissolving above-mentioned drug with DMSO added at a corresponding amount were used as control.
# Above-mentioned cells were stained by Ki67 and SA-β-gal.
# cGAS-STING pathway = test: cGAS-STING innate immune pathway and SASP in hMPCs (Western blot, RT-qPCR); format: cell-based, human; details: knockdown in HGPS and WS hMPCs
# Experimental: Cells were lysed in 1×SDS buffer (100 mM Tris-HCl, pH 6.8, 10% glycerol, 2% SDS and 2%2-mercaptoethanol), boiled for 10 min at 105° C. Protein concentration was measured by BCA kit. Cell lysate was subjected to SDS-PAGE electrophoresis, then transferred to PVDF membrane (Millipore). The membrane was incubated with primary antibody, incubated with secondary antibody conjugated to HRP after washing, then blotted with substrate, the substrate was the mixture of 1000 μL substrate A and 3 μL substrate B (substrate A: 0.2 mM cumaric acid, 1.25 mM luminal, 0.1 M Tris-HCl, pH 8.5; substrate B: 3% H2O2) or Super Signal West Femto Maximum Sensitivity Substrate (Thermo Fisher Scientific). Images were taken by Image Lab software. Quantification was conducted by ImageJ.
# In accordance with the manufacturer's instructions, total RNA of cell was extracted by TRIzol (Thermo Fisher Scientific); reverse transcribed into cDNA with GoScript reverse transcription system (Promega) for RT-qPCR; RT-qPCR was conducted with THUNDERBIRD qPCR Mix (TOYOBO) and CFX384 real-time system (Bio-Rad Laboratories, Inc.).
# To further study the activation of cGAS-STING DNA sensing pathway, the following key characteristics in different senescent hMPCs (including RS, HGPS and WS) and fibroblasts were detected: […] TANK binding kinase 1 (TBK1) and IFN regulating factor 3 (IRF3) as well as proinflammatory cytokines (e.g., IL1B andIL6), these factors were regarded as SASP factors.
# old mice [2] = test: Long-term oral administration of Abacavir in drinking water to old mice; format: in vivo, mouse; details: for mice died: n=23
# Experimental: Abacavir was dissolved in drinking water containing 0.4% DMSO at 2 mg/ml, mice of 18 months old were administered by feeding the water daily (n=23). The weight, hollow back, hair, skin, eye (cataract) and activity score of mice were measured 6 weeks, 12 weeks and 24 weeks after administration, grip strength was measured and a survival curve was plotted. […]
# as §1
# Mice were placed in the end of any arm of Y maze (trisection radiation maze, consisting of 3 arms with equal length (50 cm×18 cm×35 cm), the intersection angle between every two arms was 120 degree), allowed to explore freely for 5 min, animal behavior changes in 5 min were recorded by camera system, and the short-term spatial memory ability of mice was detected by recording the total times that the mice entered the arms and the rotations that the mice entered in turn the three arms of the Y maze.
# Retrovirus inhibitor Abacavir was dissolved in drinking water for mice (containing 0.3% DMSO) at a concentration of 2 mg/ml (n=23), and mice of 18 months old was administered daily (as shown by FIG. 33A).
# HERVK = HERVK transposition events (reporter, flow cytometry) and DNA copy number in WS hMPC; format: cell-based, human; details: 10 days after incubation
# Experimental: The experiment for detecting DNA of HERVK gene by single molecule DNA-FISH was conducted by the National Key Laboratory of Agricultural Microbiology, Huazhong Agricultural University. Senescent cells were successively treated by RNase A (100 μg/mL, dissolved in 2×SSC) at 37° C. for 1 h, treated by 70% formamide dissolved in 2×SSC at 72° C. for 10 min, treated by precooled ethanol (concentration from 80%, 90% to 100%, each treatment for 1 min). Then cells were incubated with HERVK […] specific probe pairs (each probe 10 μM) in hybridization solution (10% deionized formamide, 2×SSC, 10% dextran sulfate and 2 mM VRC) at 42° C. overnight. Washed 3 times by washing buffer (2×SSC, 30% formamide, 0.1% Triton-X 100 and 2 mM VRC), cells were incubated with amplification probes (SFSP-001 and SFTP-001, Spatial FISH, Co., Ltd.) and fluorescent probes (SFFP-001, Spatial FISH, Co., Ltd) together, HERVK DNA was subjected to single molecule detection. Finally, cells were counterstained by DAPI and imaged by confocal microscope.
# In brief, to assess transposition events occurred in HERVK during aging process, wild type mesenchymal stem cells of early passage and late passage (P7 generation and P14 generation) were transfected with HERVK reporter plasmid, and meanwhile co-transfected with dsRed, a vector expressing red fluorescence (obtained from Xu Xingzhi's Laboratory, School of Basic Medicine, Shenzhen University) to calculate transfection probability. After the confluence of cells, cells were digested into single cell, and resuspended by PBS, analyzed by flow cytometer BD Influx, the ratio of cells positive for green fluorescence to cells positive for red fluorescence was the probability of transposition events occurred in HERVK.
# To construct HERVK transposition reporter vector, first, above-mentioned HERVK fragment was cloned to dsRed vector having KpnI enzyme site mutant (obtained from Xu Xingzhi's Laboratory, School of Basic Medicine, Shenzhen University). GFP reporter (SEQ ID NO: 152) was obtained by PCR amplification from L 1 reporter (gifted by Prof. Wang Jichang, Sun Yat-sen University in Guangzhou, China), GFP reporter was inserted to dsRed-HERVK through KpnI site, contructing HERVK transposition reporter vector.
# To assess transposition events occurred for HERVK during aging process, cells of early and late generations were transfected with HERVK reporter plasmid, and meanwhile co-transfected with a vector expressing red fluorescence to calculate transfection probability. After confluence of cells, cells were digested into single cell, and resuspended with PBS, analyzed by flow cytometer BD Influx, the ratio of cells positive for green fluorescence to cells positive for red fluorescence was the probability of transposition events occurred in HERVK. […]
# old mice [3] = test: Abacavir injected to articular cavity of old mice (joint aging); format: in vivo, mouse
# Experimental: 10 μl Abacavir (in PBS with 2% DMSO) at the concentration of 10 mg/ml was injected to knee joint cavities of mice of 22 months old (n=12), injected once a week. Grip strength test was performed 4 weeks, 8 weeks and 12 weeks after the first injection. Motor coordination and balance, motor ability and Micro-CT were performed 14 weeks after the first injection, samples were taken, i.e., joints of mice hind limbs were taken out, one was frozen in liquid nitrogen and the other was fixed in 4% PFA.
# as §1
# Mice were placed on a running machine (SANS Bio Instrument, SA101) to test the motor ability of mice in accordance with the manufacturer's instructions. In particular, slope of runway was set as 5°, electrical stimulation was 2 mA, the running speed was set as follows: an initial velocity of 5 m/min for 5 min; then accelerating to final velocity of 25 m/min with an accelerated rate of 1 m/min 2, 20 mins in total. First, mice were trained for three consecutive days, and tested on the fourth day. The times of electrical stimulation, and the run distance in […] were recorded.
# Micro-CT (PE Quantum FX) was performed in accordance with the manufacturer's instructions. In brief, mice were anesthetized and placed in the instrument, scanning parameters for Micro-CT were voltage 50Kvp, power 40 W, 6-frame superposition, field 4 cm×4 cm. Three-dimensional images were screenshot after scan and reconstruction, and bone density was calculated by Ansys software.
# 5.2. Retrovirus inhibitor Abacavir delayed joint aging of old mice Retrovirus inhibitor Abacavir was injected to articular cavity of old mice (23 months old), concentration was 10 mg/ml, once a week, 10 μl every time (as shown by FIG. 32A). (n=10)
# [4] = drinking water 2 mg/ml, 24 weeks
# [5] = drinking water 2 mg/ml, 30 weeks
# [6] = articular cavity injection, P value not significant
compound,measurement,setting,value
Cc1nnc(C(=O)NC(C)(C)c2nc(C(=O)NCc3ccc(F)cc3)c(O)c(=O)n2C)o1 [Raltegravir],condition of hair,old mice [1]; i.p. twice a week,improve
same,condition of hollow back,old mice [1]; i.p. twice a week,improve
same,limb tension of mice,"old mice [1]; mice at 18 months old, 50 mg/ml, 200 μl i.p. twice a week, vs vehicle",significantly was increased
same,Ki67 positive cells,WS hMPC,significantly were increased
same,SA-β-gal positive cells,WS hMPC,significantly were decreased
same,Ki67 positive cells,WS hMPC; listed as Ratelgravir,increase
same,SA-β-gal positive cells,WS hMPC; listed as Ratelgravir,reduce
shSTING-2 (guide GCCCGGATTCGAACTTACAAT; chemistry not given here),SASP,cGAS-STING pathway,alleviated
same,cell senescence,cGAS-STING pathway,alleviated
same,phosphorylation level of IRF3,cGAS-STING pathway,reduced
same,phosphorylation level of RelA,cGAS-STING pathway,reduced
same,phosphorylation level of TBK1,cGAS-STING pathway,reduced
"Nc1nc(NC2CC2)c2ncn([C@H]3C=C[C@@H](CO)C3)c2n1 [Abacavir, abacavir]",mice died,"old mice [2]; 24 weeks after administering, control group 2 died",0
same,mice died,"old mice [2]; 30 weeks after administering, control group 4 died",1
same,spatial short-term memory ability,"old mice [2]; Y Maze, 30 weeks",enhanced
same,condition of hair,old mice [2]; [4],improve
same,condition of hollow back,old mice [2]; [4],improve
same,mobility ability of mice,old mice [2]; [4],enhance
same,Y Maze rotations that the mice entered in turn the three arms,old mice [2]; [5],increased
same,Y Maze total times that the mice entered the arms,old mice [2]; [5],increased
same,survival rate of old mice,"old mice [2]; drinking water 2 mg/ml, up to 30 weeks",improve
same,limb tension of mice,"old mice [2]; mice of 18 months old, 2 mg/ml in drinking water daily, 12 weeks",significantly enhanced
same,Ki67 positive cells,WS hMPC,increase
same,SA-β-gal positive cells,WS hMPC,reduce
same,Ki67 positive cells,WS hMPC; listed as abacavir,significantly were increased
same,SA-β-gal positive cells,WS hMPC; listed as abacavir,significantly were decreased
same,HERVK DNA copy number,HERVK,decreases
same,HERVK transposition events,HERVK,reduces
same,HERVK DNA copy number,HERVK; listed as abacavir,effectively reduce
same,HERVK transposition events,HERVK; listed as abacavir,effectively reduce
same,bone density of joint,old mice [3]; 15 weeks after injecting,increased
same,expression of senescence-associated protein p21 in joint,old mice [3]; RT-qPCR of joint RNA,decreased
same,level of inflammatory factor IL1B in joint,old mice [3]; RT-qPCR of joint RNA,decreased
same,level of inflammatory factor IL6 in joint,old mice [3]; RT-qPCR of joint RNA,decreased
same,forced treadmill running distance,old mice [3]; [6],improve
same,forced treadmill running time,old mice [3]; [6],improve
same,forced treadmill shocked time,"old mice [3]; articular cavity injection, trend, P value not significant",reduce
same,limb tension of mice,"old mice [3]; old mice (23 months old), articular cavity 10 mg/ml, 10 μl once a week, 8 weeks after injecting, vs vehicle",significantly was enhanced
